From US20120100135A1, “GENETIC POLYMORPHISMS ASSOCIATED WITH CLINICAL OUTCOMES OF TOPOISOMERASE INHIBITOR THERAPY FOR CANCER” (University of Southern California, priority 2009, published 2012)

System: mCRC patients
Experiment: Phase III EPIC trial subgroup (US sites, 186 genotyped patients): IR/CB (arm A) vs IR alone (arm B), second line after failure of FOLFOX
Assay type: in vivo, human
Method: This study was to test functional germline polymorphisms involved in the EGFR—(EGF, EGFR), angiogenesis—(VEGF, IL-8, CXCR-2)—and drug-metabolism related genes (UGT1A1, MTHFR) for their potential role as molecular predictors for clinical outcome in patients treated with CB/IR vs. IR alone.
Material and Methods: DNA was extracted from all available formalin-fixed paraffin-embedded tumor samples from the phase III EPIC trial (US sites only). Genotyping was performed using PCR-RFLP assays and 5′-end [g-33P] ATP′ labeled PCR-protocols.
Results: 186 patients were treated either with IR/CB (arm A, 84 patients) or IR (arm B, 102 patients) only. […] It was found an EGFR-CA-repeat in intron I in arm A was associated with PFS (p=0.031, log-rank test) (Table 2). In arm A, a significant association with […] (RR) (p=0.0103, Fisher's exact test) for MTHFR 1298 was found (Table 3). […] Furthermore, MTHFR 677 and MTHFR 1298 was associated with OS (adjusted p=0.028 and 0.026, respectively, Cox-proportional hazards models), independent from K-ras mutation status, race and number of disease sites.

SMILES: CCc1c2c(nc3ccc(OC(=O)N4CCC(N5CCCCC5)CC4)cc13)-c1cc3c(c(=O)n1C2)COC(=O)[C@]3(O)CC [IR, Irinotecan]
- Median PFS (95% CI): 2.7 months
- median overall survival (OS) (95% CI): 12.3 months
- patients showing CR or PR (arm A n=84, arm B n=102): 6%
- patients with SD or PD (arm A n=84, arm B n=102): 94%
